Test results reported in US20250304576A1 (Cancer Research Technology Limited, priority 2022, published 2025).
Like-named read-outs stand apart in the source and are kept apart here.

Molecular target: T1, IKBKB (IKKβ) (Homo sapiens, UniProt O14920)
T1 construct: purchased Life Technologies (assay performed by the vendor)
T1 sequence (O14920 1-756): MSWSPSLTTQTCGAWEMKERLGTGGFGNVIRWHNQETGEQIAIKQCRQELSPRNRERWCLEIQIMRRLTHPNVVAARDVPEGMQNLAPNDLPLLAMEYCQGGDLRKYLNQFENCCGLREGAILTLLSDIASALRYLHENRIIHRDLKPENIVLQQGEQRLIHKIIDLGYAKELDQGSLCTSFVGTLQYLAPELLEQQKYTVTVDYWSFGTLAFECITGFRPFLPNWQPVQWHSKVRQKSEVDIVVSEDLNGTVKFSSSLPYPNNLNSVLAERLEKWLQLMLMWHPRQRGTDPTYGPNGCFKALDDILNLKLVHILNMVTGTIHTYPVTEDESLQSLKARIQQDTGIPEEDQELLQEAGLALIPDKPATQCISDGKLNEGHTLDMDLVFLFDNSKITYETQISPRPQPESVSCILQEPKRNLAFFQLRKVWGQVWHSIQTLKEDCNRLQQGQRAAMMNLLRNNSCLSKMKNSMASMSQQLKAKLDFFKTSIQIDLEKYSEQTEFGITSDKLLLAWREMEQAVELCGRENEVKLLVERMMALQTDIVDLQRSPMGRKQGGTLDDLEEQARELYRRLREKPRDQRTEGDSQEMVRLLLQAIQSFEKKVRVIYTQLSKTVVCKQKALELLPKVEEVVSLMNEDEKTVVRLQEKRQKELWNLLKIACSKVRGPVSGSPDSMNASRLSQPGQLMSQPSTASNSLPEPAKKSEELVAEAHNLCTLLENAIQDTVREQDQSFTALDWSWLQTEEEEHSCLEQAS
Assay: Z'-LYTE IKKβ assay (Life Technologies)
Type: biochemical
Procedure: IKKα and IKKβ inhibitory activity was determined using three different assays: a dissociation enhanced ligand fluorescent immunoassay (DELFIA) based on the protocol of HTScan™ IKKβ Kinase Assay (Cell Signaling Technology, USA); an Adapta IKKα assay (performed by Life Technologies); a Z′-LYTE™ IKKβ assay (performed by Life Technologies).
The reaction was performed in low volume NBS, black 384-well plates (Corning model 4514).
The test compounds were screened in 1% DMSO (final) in the well. For 10 point titrations, 3-fold serial dilutions were conducted from the starting concentration of 50 mM.
The 2× IKBKB (IKKβ)/Ser/Thr 05 mixture was prepared in 50 mM HEPES pH 7.5, 0.01% BRIJ-35, 10 mM MgCl2, 1 mM EGTA. The final 10 μL Kinase Reaction consisted of 0.62-4 ng IKBKB (IKKβ) and 2 μM Ser/Thr 05 in 50 mM HEPES pH 7.5, 0.01% BRIJ-35, 10 mM MgCl2, 1 mM EGTA.
5 μL of 2× Kinase reaction was incubated with 2.5 μL of ATP solution diluted to a 4× working concentration in Kinase Buffer (50 mM HEPES pH 7.5, 0.01% BRIJ-35, 10 mM MgCl2, 1 mM EGTA) in the presence of […] of 100× test compound in 100% DMSO and 2.4 μL of Kinase buffer.
The resulting kinase reaction was allowed to incubate for 1 hour at room temperature before 5 μL of a 1:64 dilution of Development Reagent B was added and the resulting Development Reaction was incubated for another hour at room temperature. Then the plate was read on a fluorescence plate reader and the data analysed.
A ratiometric method, which calculated the Emission Ratio of donor emission (i.e. coumarin) to acceptor emission (i.e. fluorescein) after excitation of the donor fluorophore at 400 nm, was used to quantitate reaction progress, as shown in the equation below.

Row | IC50 | IC50 (Life Technologies assay) | Compound
1 | 0.483 µM |  | CC(C)(C)Cc1cc2c(-c3ccc4[nH]nc(N)c4c3)ccnc2[nH]1 [Example 220, 5-(2-Neopentyl-1H-pyrrolo[2,3-b]pyridin-4-yl)-1H-indazol-3-amine]
2 | 0.017 µM |  | Nc1n[nH]c2ccc(-c3ccnc4[nH]c(C5CC5)cc34)cc12 [Example 218, 5-(2-Cyclopropyl-1H-pyrrolo[2,3-b]pyridin-4-yl)-1H-indazol-3-amine]
3 | 1.43 µM |  | CC(C)(C)NCc1cc2c(-c3ccc4[nH]nc(N)c4c3)ccnc2[nH]1 [Example 248, 5-(2-((tert-Butylamino)methyl)-1H-pyrrolo[2,3-b]pyridine-4-yl)-1H-indazol-3-amine]
4 | 0.268 µM |  | Nc1n[nH]c2ccc(-c3ccnc4[nH]c(CCC5CCCCC5)cc34)cc12 [Example 222, 5-(2-(2-Cyclohexylethyl)-1H-pyrrolo[2,3-b]pyridin-4-yl)-1H-indazol-3-amine]
5 |  | 0.205 µM | Nc1nccc(-c2ccc3[nH]nc(N)c3c2)c1C#CC1(O)CCCCC1 [Example 90, 1-((2-Amino-4-(3-amino-1H-indazol-5-yl)pyridine-3-yl)ethynyl)cyclohexan-1-ol]
6 |  | 0.135 µM | Nc1cc(-c2cc(-c3ccoc3)c3[nH]nc(N)c3c2)ccn1 [Example 129, 5-(2-Aminopyridin-4-yl)-7-(furan-3-yl)-1H-indazol-3-amine]
7 | 0.38 µM |  | CN1CCCN(Cc2cc3c(-c4ccc5[nH]nc(N)c5c4)ccnc3[nH]2)CC1 [Example 266, 5-(2-((4-Methyl-1,4-diazepan-1-yl)methyl)-1H-pyrrolo[2,3-b]pyridin-4-yl)-1H-indazol-3-amine]
8 | 1.03 µM |  | Nc1n[nH]c2c(C#CCCCN3CCOCC3)cc(-c3ccnc4[nH]ccc34)cc12 [Example 210, 7-(5-Morpholinopent-1-yn-1-yl)-5-(1H-pyrrolo[2,3-b]pyridin-4-yl)-1H-indazol-3-amine]
9 |  | 0.036 µM | Nc1nccc(-c2ccc3[nH]nc(N)c3c2)c1C#CCO [Example 83, 3-(2-Amino-4-(3-amino-1H-indazol-5-yl)pyridine-3-yl)prop-2-yn-1-ol]
10 | 0.158 µM |  | C#Cc1cc(-c2ccnc3[nH]ccc23)cc2c(N)n[nH]c12 [Example 200, 7-Ethynyl-5-(1H-pyrrolo[2,3-b]pyridin-4-yl)-1H-indazol-3-amine]
11 | 0.79 µM |  | Nc1n[nH]c2ccc(-c3ccnc4[nH]c(C(=O)N5CCCC5)cc34)cc12 [Example 234, (4-(3-Amino-1H-indazol-5-yl)-1H-pyrrolo[2,3-b]pyridin-2-yl)(pyrrolidin-1-yl)methanone]
12 | 0.032 µM |  | Nc1n[nH]c2ccc(-c3ccnc4[nH]c(C5CCOCC5)cc34)cc12 [Example 228, 5-(2-(tetrahydro-2H-pyran-4-yl)-1H-pyrrolo[2,3-b]pyridin-4-yl)-1H-indazol-3-amine]
13 |  | 0.505 µM | Nc1nccc(-c2ccc3[nH]nc(N)c3c2)c1C#CC1(O)CCCCCC1 [Example 91, 1-((2-Amino-4-(3-amino-1H-indazol-5-yl)pyridine-3-yl)ethynyl)cycloheptan-1-ol]
14 | 0.63 µM |  | CN1CCN(C(=O)c2cc3c(-c4ccc5[nH]nc(N)c5c4)ccnc3[nH]2)CC1 [Example 243, (4-(3-Amino-1H-indazol-5-yl)-1H-pyrrolo[2,3-b]pyridin-2-yl)(4-methylpiperazin-1-yl)methanone]
15 | 0.02 µM |  | Nc1n[nH]c2ccc(-c3ccnc4[nH]c(C(=O)NC5CCCCC5)cc34)cc12 [Example 236, 4-(3-Amino-1H-indazol-5-yl)-N-cyclohexyl-1H-pyrrolo[2,3-b]pyridine-2-carboxamide]
16 | 0.06 µM |  | Nc1n[nH]c2ccc(-c3ccnc4[nH]c(CC5CCOCC5)cc34)cc12 [Example 230, 5-(2-((tetrahydro-2H-pyran-4-yl)methyl)-1H-pyrrolo[2,3-b]pyridin-4-yl)-1H-indazol-3-amine]
17 |  | 0.162 µM | Nc1cc(-c2cc(-c3ccccc3)c3[nH]nc(N)c3c2)ccn1 [Example 104, 5-(2-Aminopyridin-4-yl)-7-phenyl-1H-indazol-3-amine]
18 |  | 0.025 µM | Nc1nccc(-c2ccc3[nH]nc(N)c3c2)c1C#CCCCO [Example 85, 5-(2-Amino-4-(3-amino-1H-indazol-5-yl)pyridine-3-yl)pent-4-yn-1-ol]
